Values belong to the compound of their own block, whether it stands above or below them.
What was measured:
[1] = Dissociation constant, pKa of the compound; type: physicochemical
[2] = target: T1, Histamine H3 receptor (Homo sapiens, UniProt Q9Y5N1); test: Inhibition of human histamine H3 expressed in CHO cells by saturation binding experiment; type: cell-based
[3] = target: Histamine H1 receptor (Homo sapiens) (UniProt P35367); test: Inhibition of human histamine H1 receptor at 3 uM
[4] = target: Histamine H4 receptor (Homo sapiens) (UniProt Q9H3N8); test: Inhibition of human histamine H4 receptor at 3 uM
[5] = target: Histamine H2 receptor (Homo sapiens) (UniProt P25021); test: Inhibition of human histamine H2 receptor at 3 uM
Sequence of Histamine H2 receptor (Homo sapiens) (P25021 whole entry): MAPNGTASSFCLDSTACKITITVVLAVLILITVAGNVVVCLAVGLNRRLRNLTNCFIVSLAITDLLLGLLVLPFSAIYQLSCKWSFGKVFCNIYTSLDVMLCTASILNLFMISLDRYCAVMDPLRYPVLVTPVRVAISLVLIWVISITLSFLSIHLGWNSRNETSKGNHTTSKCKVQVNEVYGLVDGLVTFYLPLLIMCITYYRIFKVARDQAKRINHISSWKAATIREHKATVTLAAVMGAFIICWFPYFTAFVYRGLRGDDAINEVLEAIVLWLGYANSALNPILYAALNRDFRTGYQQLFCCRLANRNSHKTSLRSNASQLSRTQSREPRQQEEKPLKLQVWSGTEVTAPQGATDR

[6] = target: Cytochrome P450 2D6 (Homo sapiens, UniProt P10635); test: Inhibition of CYP2D6; type: ADME
Sequence of Cytochrome P450 2D6 (P10635 whole entry): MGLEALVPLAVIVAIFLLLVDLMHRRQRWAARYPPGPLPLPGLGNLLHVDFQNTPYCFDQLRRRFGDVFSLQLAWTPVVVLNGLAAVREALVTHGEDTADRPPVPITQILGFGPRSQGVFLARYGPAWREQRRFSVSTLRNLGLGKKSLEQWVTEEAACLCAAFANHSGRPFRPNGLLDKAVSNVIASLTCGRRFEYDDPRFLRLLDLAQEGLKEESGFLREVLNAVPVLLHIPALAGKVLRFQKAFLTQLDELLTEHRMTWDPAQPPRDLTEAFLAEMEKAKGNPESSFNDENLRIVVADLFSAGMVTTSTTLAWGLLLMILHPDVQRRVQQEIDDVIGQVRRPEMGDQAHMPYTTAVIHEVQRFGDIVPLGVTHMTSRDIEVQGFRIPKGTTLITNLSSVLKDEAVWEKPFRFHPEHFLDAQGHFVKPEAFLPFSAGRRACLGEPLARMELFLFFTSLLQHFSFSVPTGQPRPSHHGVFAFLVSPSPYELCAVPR

[7] = Solubility in 10 mM DMSO by lyophilizated solubility assay; type: physicochemical
[8] = target: Cytochrome P450 3A4 (Homo sapiens, UniProt P08684); test: Inhibition of CYP3A4; type: ADME
Sequence of Cytochrome P450 3A4 (P08684 whole entry): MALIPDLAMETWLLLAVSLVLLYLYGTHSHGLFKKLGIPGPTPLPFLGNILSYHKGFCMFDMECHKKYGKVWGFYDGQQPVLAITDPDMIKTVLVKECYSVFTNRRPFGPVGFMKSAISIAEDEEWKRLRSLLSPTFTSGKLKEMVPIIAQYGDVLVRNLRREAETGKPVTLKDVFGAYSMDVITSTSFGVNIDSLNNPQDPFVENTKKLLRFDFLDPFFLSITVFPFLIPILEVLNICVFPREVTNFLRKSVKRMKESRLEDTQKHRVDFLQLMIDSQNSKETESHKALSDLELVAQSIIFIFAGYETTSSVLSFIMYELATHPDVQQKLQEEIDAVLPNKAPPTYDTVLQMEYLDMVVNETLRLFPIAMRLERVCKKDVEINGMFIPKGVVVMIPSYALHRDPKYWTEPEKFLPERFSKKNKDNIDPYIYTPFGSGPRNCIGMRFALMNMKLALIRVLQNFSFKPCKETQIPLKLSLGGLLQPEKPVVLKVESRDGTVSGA

[9] = Metabolic stability in rat liver microsomes assessed as clearance per mg of protein; type: ADME, Microsome
[10] = target: T1, Histamine H3 receptor; test: Inverse agonist activity at human histamine H3 receptor expressed in CHO cells by [35S]GTPgammaS binding assay; type: functional, cell-based
[11] = target: Cytochrome P450 2C9 (Homo sapiens, UniProt P11712); test: Inhibition of CYP2C9; type: ADME
Sequence of Cytochrome P450 2C9 (P11712 whole entry): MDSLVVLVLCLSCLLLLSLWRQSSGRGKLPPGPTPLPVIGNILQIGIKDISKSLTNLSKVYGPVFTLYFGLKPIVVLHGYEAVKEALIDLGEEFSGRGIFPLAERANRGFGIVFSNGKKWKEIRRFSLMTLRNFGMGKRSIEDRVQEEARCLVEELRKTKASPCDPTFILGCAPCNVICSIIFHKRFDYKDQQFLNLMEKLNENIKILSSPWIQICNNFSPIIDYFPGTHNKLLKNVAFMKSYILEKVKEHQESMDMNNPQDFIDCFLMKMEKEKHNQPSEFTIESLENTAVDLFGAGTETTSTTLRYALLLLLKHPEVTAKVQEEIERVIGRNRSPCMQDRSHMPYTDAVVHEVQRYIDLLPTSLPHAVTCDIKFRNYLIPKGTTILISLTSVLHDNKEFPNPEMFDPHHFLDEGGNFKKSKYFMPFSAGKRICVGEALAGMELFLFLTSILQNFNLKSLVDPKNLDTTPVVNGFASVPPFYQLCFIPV

[12] = target: T2, Cytochrome P450 1A2 (Homo sapiens, UniProt P05177); test: Inhibition of CYP1A2; type: ADME
T2 sequence (P05177 whole entry): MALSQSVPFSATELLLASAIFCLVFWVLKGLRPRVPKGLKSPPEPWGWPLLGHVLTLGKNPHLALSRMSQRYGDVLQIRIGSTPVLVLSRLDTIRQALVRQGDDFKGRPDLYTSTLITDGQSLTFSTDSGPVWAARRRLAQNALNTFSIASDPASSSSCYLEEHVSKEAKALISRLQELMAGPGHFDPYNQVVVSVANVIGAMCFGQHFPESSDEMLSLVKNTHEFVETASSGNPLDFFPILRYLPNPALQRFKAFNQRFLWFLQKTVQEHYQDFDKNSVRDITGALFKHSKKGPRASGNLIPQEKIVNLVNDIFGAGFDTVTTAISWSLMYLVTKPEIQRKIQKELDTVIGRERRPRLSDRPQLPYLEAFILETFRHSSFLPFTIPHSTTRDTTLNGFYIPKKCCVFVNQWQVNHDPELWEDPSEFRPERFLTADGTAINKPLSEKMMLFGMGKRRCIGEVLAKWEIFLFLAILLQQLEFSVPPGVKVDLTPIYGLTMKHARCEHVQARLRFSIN

[13] = Genotoxicity in mammalian cells assessed as increase in number of micronucleated cells by micronucleus test; type: cell-based
[14] = Membrane permeability by PAMPA; type: ADME; conditions: read-out: permeability
[15] = Metabolic stability in human liver microsomes assessed as clearance per mg of protein; type: ADME, Microsome
[16] = test system: Salmonella enterica subsp. enterica; test: Toxicity in Salmonella Typhimurium assessed as increase in number of revertant colonies by AMES microsuspension assay; type: organism-based; conditions: salmonella enterica subsp. enterica serovar typhimurium
[17] = Lipophilicity, log D at pH 7.4; type: physicochemical; conditions: buffer
[18] = target: Cytochrome P450 2C19 (Homo sapiens, UniProt P33261); test: Inhibition of CYP2C19; type: ADME
Sequence of Cytochrome P450 2C19 (P33261 whole entry): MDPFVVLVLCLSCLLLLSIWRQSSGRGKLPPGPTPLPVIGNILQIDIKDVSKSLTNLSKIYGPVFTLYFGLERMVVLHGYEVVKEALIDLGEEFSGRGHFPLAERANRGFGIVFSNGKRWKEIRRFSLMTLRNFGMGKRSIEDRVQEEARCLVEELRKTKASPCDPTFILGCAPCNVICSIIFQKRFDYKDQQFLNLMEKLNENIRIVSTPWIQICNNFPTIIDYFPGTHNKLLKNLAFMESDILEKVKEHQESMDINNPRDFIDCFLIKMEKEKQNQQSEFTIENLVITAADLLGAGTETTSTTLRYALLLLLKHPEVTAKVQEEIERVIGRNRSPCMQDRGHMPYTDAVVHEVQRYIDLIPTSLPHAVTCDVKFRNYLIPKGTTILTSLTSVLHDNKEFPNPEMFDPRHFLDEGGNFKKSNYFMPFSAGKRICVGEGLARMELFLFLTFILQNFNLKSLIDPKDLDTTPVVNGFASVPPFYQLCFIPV

[19] = test system: Phospholipidosis; test: In vitro phospholipidosis in fibroblasts; type: ADME, cell-based; conditions: fibroblast

T1 sequence (Q9Y5N1 whole entry): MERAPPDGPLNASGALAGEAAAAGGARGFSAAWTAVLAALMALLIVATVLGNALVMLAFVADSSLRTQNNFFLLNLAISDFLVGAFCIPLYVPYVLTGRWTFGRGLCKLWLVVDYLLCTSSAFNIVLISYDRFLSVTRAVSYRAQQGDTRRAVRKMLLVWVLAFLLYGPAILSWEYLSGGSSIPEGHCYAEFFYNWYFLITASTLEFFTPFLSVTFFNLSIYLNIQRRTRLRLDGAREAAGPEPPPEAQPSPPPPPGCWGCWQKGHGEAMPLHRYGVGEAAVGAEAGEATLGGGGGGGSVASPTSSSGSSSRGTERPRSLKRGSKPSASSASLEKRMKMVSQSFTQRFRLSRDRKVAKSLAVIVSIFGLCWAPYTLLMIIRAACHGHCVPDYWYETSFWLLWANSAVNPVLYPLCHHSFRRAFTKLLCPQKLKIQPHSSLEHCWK
Sequence of Histamine H1 receptor (Homo sapiens) (P35367 whole entry): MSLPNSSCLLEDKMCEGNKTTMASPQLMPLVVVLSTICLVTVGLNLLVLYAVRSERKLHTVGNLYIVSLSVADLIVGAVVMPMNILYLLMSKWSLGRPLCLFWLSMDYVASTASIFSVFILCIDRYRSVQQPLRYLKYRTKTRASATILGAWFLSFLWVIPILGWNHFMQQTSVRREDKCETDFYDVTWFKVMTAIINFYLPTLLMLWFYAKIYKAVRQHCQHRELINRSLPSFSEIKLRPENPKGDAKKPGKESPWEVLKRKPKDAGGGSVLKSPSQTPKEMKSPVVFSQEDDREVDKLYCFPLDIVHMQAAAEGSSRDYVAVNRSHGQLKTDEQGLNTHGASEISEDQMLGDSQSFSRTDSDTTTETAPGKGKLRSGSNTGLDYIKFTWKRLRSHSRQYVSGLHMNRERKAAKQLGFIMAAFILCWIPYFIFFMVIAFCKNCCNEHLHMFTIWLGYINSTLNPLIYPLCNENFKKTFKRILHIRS

- pKa [1]: 9.5
- Ki [2]: 87 nM
SMILES: CC(C)N1CCC(Oc2ccc3nc(C(=O)N4CCC[C@H]4C#N)ccc3c2)CC1

- pKa [1]: 9.5
- Ki [2]: 125 nM
SMILES: COC1CCN(C(=O)c2ccc3cc(OC4CCN(C(C)C)CC4)ccc3n2)CC1

- pKa [1]: 9.3
- IC50 [6]: > 41000 nM
- solubility [7]: > 558 µg/mL
- IC50 [8]: > 41000 nM
- microsomal CLint [9]: 3 µL/min/mg
- EC50 [10]: 17 nM
- IC50 [11]: > 41000 nM
- IC50 [12]: > 41000 nM
- inhibition [3]: 1.6%
- Papp [14]: 2.5 ×10⁻⁶ cm/s
- microsomal CLint [15]: 23 µL/min/mg
- inhibition [4]: 0%
- Ki [2]: 40 nM
- inhibition [5]: -9.9%
- logD [17]: 0.6
- IC50 [18]: > 41000 nM
SMILES: CC(C)N1CCC(Oc2ccc3cc(C(=O)N4CCOCC4)ccc3c2)CC1
- Activity [13]: Non-toxic
- Phospholipidosis [19]: Not Active
- Activity [16]: Non-toxic

- pKa [1]: 9.5
- Ki [2]: 62 nM
SMILES: CC(C)N1CCC(Oc2ccc3nc(C(=O)N4CCC4)ccc3c2)CC1

- pKa [1]: 8.97
- Ki [2]: 30 nM
SMILES: CC(C)N1[C@@H]2CC(Oc3ccc4nc(C(=O)N5CCOCC5)ccc4c3)CC[C@H]1C2 (stereo not given in full)

- pKa [1]: 9.5
- Ki [2]: 238 nM
SMILES: CC(C)N1CCC(Oc2ccc3nc(C(=O)N4CCOCC4)ccc3c2)CC1

More lines, now with the values behind:

SMILES: CC(C)N1CCC(Oc2ccc3cc(C(=O)N4CCCC4C)ccc3c2)CC1 (stereo not given)
- pKa [1]: 9.71
- Ki [2]: 15 nM

SMILES: CC1CCN(C(=O)c2ccc3cc(OCCC4CCCN4C)ccc3c2)CC1 (stereo not given)
- pKa [1]: 9.9

SMILES: CC(C)CN1CCC(Oc2ccc3cc(C(=O)N4CCC(C)CC4)ccc3c2)CC1
- pKa [1]: 9.8
- inhibition [3]: -4.5%
- inhibition [4]: 0%
- Ki [2]: 36 nM
- inhibition [5]: 4.1%

SMILES: CC(C)N1CCC(Oc2ccc3cc(C(=O)N4CCC(CO)CC4)ccc3c2)CC1
- pKa [1]: 9.6
- Ki [2]: 154 nM

SMILES: CC1CCN(C(=O)c2ccc3cc(OCCCN4CCCCC4)ccc3c2)CC1
- pKa [1]: 9.86
- IC50 [6]: > 12000 nM
- solubility [7]: > 543 µg/mL
- IC50 [8]: > 12000 nM
- microsomal CLint [9]: 32 µL/min/mg
- EC50 [10]: 200 nM
- IC50 [11]: > 12000 nM
- IC50 [12]: > 12000 nM
- Activity [13]: Non-toxic
- Papp [14]: 2.6 ×10⁻⁶ cm/s
- microsomal CLint [15]: 33 µL/min/mg
- inhibition [4]: 0%
- Ki [2]: 7 nM
- Activity [16]: Non-toxic
- inhibition [5]: -0.3%
- logD [17]: 2.47
- IC50 [18]: > 12000 nM

SMILES: COC1CCN(C(=O)c2ccc3cc(OC4CCN(C(C)C)CC4)ccc3c2)CC1
- pKa [1]: 9.4
- Ki [2]: 62 nM

SMILES: CC1CCN(C(=O)c2ccc3cc(OC4CCN(C(C)C)CC4)ccc3c2)CC1
- pKa [1]: 9.6
- inhibition [3]: 0.9%
- inhibition [4]: 0%
- Ki [2]: 34 nM
- inhibition [5]: -8%

SMILES: COC1CCN(C(=O)c2ccc3cc(OCCCN4CCCCC4)ccc3c2)CC1
- pKa [1]: 9.57
- Ki [2]: 30 nM

SMILES: CC1CCN(C(=O)c2ccc3cc(OC4CCN(C(C)C)C4)ccc3c2)CC1 (stereo not given)
- pKa [1]: 9.4
- Ki [2]: 234 nM

SMILES: CC1CCN(C(=O)c2ccc3cc(OCCCN4CCCCC4)ccc3n2)CC1
- pKa [1]: 9.7
- Ki [2]: 300 nM

SMILES: CC1CCN(C(=O)c2ccc3cc(OCCCN4CCOCC4)ccc3c2)CC1
- pKa [1]: 7.8
- Ki [2]: 2000 nM

SMILES: O=C(c1ccc2cc(OCCCN3CCCCC3)ccc2n1)N1CCC1
- pKa [1]: 9.4
- Ki [2]: 119 nM

SMILES: O=C(c1ccc2cc(OCCCN3CCCCC3)ccc2c1)N1CCC(CO)CC1
- pKa [1]: 9.6
- Ki [2]: 103 nM

— ChEMBL document CHEMBL1153640, “Selective naphthalene H(3) receptor inverse agonists with reduced potential to induce phospholipidosis and their quinoline analogs” (Bioorg Med Chem Lett, 2009)
